Consider four compounds from article PMC10106510 (European Journal of Medicinal Chemistry, 2023).

One series concerns the target CYP3A4 (Homo sapiens, UniProt P08684).
Series [1] concerns Balb/c mice. The note with it: 25, 50, and 100 mg/kg, intraperitoneal.
The subject of series [2] is SARS-CoV-2 RNA (ORF1b, Spike) in infected Caco-2 cells. Type of series: cell-based.
For series [3], the system named is SARS-CoV-2 infected Caco-2 cells (IFN-α, IL-6, OAS1 mRNA). Type of series: cell-based, Human. The note with it: 20 μg/mL.
Series [4] deals with Balb/c mice.
In the next series the test system is MERS-CoV PLpro. The note with it: cited from earlier work.
The target of series [5] is T1, SARS-CoV-2 PLpro (Severe acute respiratory syndrome coronavirus 2, UniProt P0DTD1). The note with it: cited from earlier work.
Series [6] addresses T1, SARS-CoV-2 PLpro. As to the kind of experiment: Papain-like protease. The note with it: variable results in dose-dependent study, IC50 not determined.

CYP3A4, sequence (P08684 whole entry): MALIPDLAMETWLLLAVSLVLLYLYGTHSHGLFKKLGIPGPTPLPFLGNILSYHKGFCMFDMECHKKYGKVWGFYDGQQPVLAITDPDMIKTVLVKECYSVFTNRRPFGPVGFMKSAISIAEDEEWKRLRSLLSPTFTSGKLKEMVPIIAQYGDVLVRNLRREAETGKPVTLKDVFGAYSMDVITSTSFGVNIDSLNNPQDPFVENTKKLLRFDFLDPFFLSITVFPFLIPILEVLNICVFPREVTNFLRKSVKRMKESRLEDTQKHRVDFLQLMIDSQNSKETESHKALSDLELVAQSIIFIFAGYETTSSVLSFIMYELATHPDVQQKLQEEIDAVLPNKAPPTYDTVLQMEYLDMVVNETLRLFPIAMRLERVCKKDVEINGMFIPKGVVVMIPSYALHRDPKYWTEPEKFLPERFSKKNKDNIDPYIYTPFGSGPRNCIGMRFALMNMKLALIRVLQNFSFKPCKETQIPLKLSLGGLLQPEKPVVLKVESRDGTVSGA

For `CC1(C)[C@H]2COc3ccc4ccccc4c3[C@H]2N=C2SC=C(c3ccc(S(=O)(=O)N4CCOCC4)cc3)N21` [SIMR1493], at CYP3A4, the “CYP3A4 IC50” value is 134 µM.

In the case of `COc1ccc2[nH]c3c(c2c1)C[C@]1(OC)CC[C@H]2c4[nH]c5ccccc5c4CCN2[C@@H]1C3` [SIMR3030], the “signs of toxicity or body weight loss, single dose” value with Balb/c mice [1] was “no signs of toxicity or body weight loss”. The “Spike RNA inhibition” value in series [2] (20 μg/mL, 1, 6 and 12 h) was “observed only after 6 and 12 h”. Besides, the “viral ORFb1 RNA inhibition” value in series [2] (20 μg/mL, at 1, 6 and 12 h) is “more than 70%”. In series [3] (at 1, 3 and 12 h), the “IL-6 mRNA expression” value is recorded as “significantly reduced” and the “OAS1 mRNA expression” value is reported as “significantly reduced”. For the same compound, the “IFN-α mRNA expression” value in series [3] (at 1 and 3 h) is listed as “significantly reduced”. Further, in the series with Balb/c mice [4] (25 mg/kg multiple dose, hematological analysis), the platelet population entry is on record as “slight reduction”. Also, the “signs of toxicity or weight loss, multiple dose” value with Balb/c mice [4] (12.5 and 25 mg/kg, intraperitoneal, daily for 14 days) is on record as “no signs of toxicity or weight loss”. Also, the “microscopic investigation of organs (liver, spleen, kidneys, heart, lungs)” value in the series on Balb/c mice [4] (H&E staining, 12.5 and 25 mg/kg multiple dose) is “no histologic variations and no signs of toxic injury”.

Take `Cc1ccc(N)cc1C(=O)N[C@H](C)c1cccc2ccccc12` [GRL0617]: in the series with MERS-CoV PLpro, the “activity against MERS-CoV PLpro” value is on record as “inactivity”. In addition, the “inhibitory activity in a cell-based assay” value on SARS-CoV-2 PLpro [5] is reported as “moderate to weak”.

Regarding `COC(=O)C[C@@H]1COc2ccccc2[C@H](C(=O)NC(C)(C)C)N(CCc2c[nH]c3ccc(OC)cc23)C(=O)[C@@H]1c1nnc(-c2cccc(C(F)(F)F)c2)o1` [SIMR2304], at SARS-CoV-2 PLpro [6], the “PLpro inhibitory activity, initial screening” value was “very strong inhibitory activity”.
